Assay results from patent publication US20260116910A1, “POLYCYCLIC COMPOUNDS AND METHODS THEREOF” (HEPAITECH (BEIJING) BIOPHARMA TECHNOLOGY CO., LTD., priority 2021, published 2026).
Where two headings read alike, the source gives them in different places. Values belong to the compound of their own block, whether it stands above or below them.

Assays:
[1] = biological target: T1, human FXR (NR1H4) (Homo sapiens, UniProt Q96RI1); test: Human FXR (NR1H4) agonist assessment, FXRE-NanoLuc reporter in HEK293T cells; assay type: cell-based; settings: for EC50: read-out: EC50
T1 sequence (Q96RI1 1-476 isoform Q96RI1-1): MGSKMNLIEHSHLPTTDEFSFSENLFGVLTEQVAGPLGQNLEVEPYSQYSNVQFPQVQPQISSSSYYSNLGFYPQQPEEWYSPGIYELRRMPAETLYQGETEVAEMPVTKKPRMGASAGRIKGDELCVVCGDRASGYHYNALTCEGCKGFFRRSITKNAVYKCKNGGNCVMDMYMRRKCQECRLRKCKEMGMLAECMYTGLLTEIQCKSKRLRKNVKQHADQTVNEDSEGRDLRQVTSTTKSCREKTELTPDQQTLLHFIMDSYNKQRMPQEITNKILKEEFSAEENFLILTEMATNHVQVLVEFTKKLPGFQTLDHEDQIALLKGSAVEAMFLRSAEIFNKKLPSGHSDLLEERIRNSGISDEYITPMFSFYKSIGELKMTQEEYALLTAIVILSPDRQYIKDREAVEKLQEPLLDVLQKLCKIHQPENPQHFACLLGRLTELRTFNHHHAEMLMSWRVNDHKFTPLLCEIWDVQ
Procedure: As those skilled in the art appreciate, various technologies are available for assessment of FXR activation in accordance with the present disclosure. […] Human FXR (NR1H4) agonist assessment (see, e.g., Yu et al. eLife 2019; 8: e48431): HEK293T cells stably expressing human FXR and containing FXR response element (FXRE)-NanoLuc reporter were cultured in DMEM medium supplemented with 10% FBS and 1% PS, at 37° C. in a humidified atmosphere with 5% CO2. Cells were detached by centrifuging (1000 rpm, 3 min). The pellet was re-suspended in medium, and cell density was adjusted to about 1×10^6 cells/mL. 100 μL suspension was seeded to each well of a white-walled, clear-bottom 96-well microplates (cell plate). Cells in microplates were cultured overnight.
In the following day, cells were grown to higher than 95% density in each well. Culture medium was replaced, and compounds were added to the wells. 0.01% DMSO (v/v) served as negative control. Plates were incubated at 37° C. in 5% CO2 for 24 hr.
In the following day, a 10 μL aliquot of cell culture medium was removed from each well and combined with 40 μL culture medium plus […] assay buffer (containing 20 mM of the luciferase substrate coelenterazine). After 5 min incubation, luminescence was measured using an EnVision plate reader (PerkinElmer).
In some embodiments, gradient diluted solutions of several concentrations were used to treat cells and corresponding responses were used to fit sigmoid function and to derive EC50 in Origin.

[2] = biological target: MRGPRX4 (Homo sapiens, UniProt Q96LA9); test: MRGPRX4 activation, Fluo-8 Ca2+ FLIPR assay in HEK293T cells stably expressing MRGPRX4; assay type: cell-based; settings: for EC50: MRGPRX4 activation, Ca2+ fluorescence
MRGPRX4, sequence (Q96LA9 whole entry): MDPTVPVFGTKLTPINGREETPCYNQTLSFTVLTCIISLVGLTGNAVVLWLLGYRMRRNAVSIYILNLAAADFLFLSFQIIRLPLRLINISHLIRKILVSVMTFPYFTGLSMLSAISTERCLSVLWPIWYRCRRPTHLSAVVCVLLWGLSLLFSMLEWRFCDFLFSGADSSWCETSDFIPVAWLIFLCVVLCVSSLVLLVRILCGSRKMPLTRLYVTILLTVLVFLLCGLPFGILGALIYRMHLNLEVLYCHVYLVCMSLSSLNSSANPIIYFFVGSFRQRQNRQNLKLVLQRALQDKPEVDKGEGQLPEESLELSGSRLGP
Procedure: In some embodiments, cells were cultured in poly-D-Lys coated blacked walled, clear-bottom 96-well microplates. HEK293T cells stably expressing MRGPRX4 were cultured in DMEM medium supplemented with 10% FBS and 1% PS, at 37° C. in a humidified atmosphere with 5% CO2. Cells were detached by centrifuging (1000 rpm, 3 min). The pellet was re-suspended in medium, and cell density was adjusted to about 1×10^6 cells/mL. 100 μL suspension was seeded to each well of a microplates (cell plate). Cells in the microplates were cultured overnight. In the following day, cells were grown to higher than 95% density in each well.
Ca^2+ fluorescent dye loading: Fluo-8 AM (Screen Quest Fluo-8 AM Calcium Assay Kit, AAT Bioquest, cat. #: 21083) was diluted in HHBS buffer and adjusted to 2 μM (dye buffer). Medium in each well was changed into 50 μL dye buffer carefully. After incubation for 40-60 min under room temperature, the dye buffer was changed into 50 μL HHBS buffer.
The concentration of solution should be determined according to the protocol settings and experimental needs (e.g., Log[M]=−4, −5, −6, −7, −8, and −9). Prepare 2× serial dilution series of compounds (at least 75 μL per well).
A fluorescent signal baseline was measured using FLIPR®Tetra for 30 s. Then 50 μL of the chemical solution would be added to the cell plate. The fluorescent signal would be measured for another 150 s.
Activity of each compound was calculated by the fluorescence change (dF/F0). Curves were fitted to obtain EC50 values. In some embodiments, at least 3 repeats were performed to obtain the average values. For assessment of a compound, gradient diluted solutions of different concentrations were used to treat cells and corresponding responses were used to fit sigmoid function and to derive EC50 in Origin. In some embodiments, assessed concentrations were or included about 10^−4, 10^−4.5, 10^−5, 10^−5.5, 10^−6, 10^−6.5, 10^−7, 10^−8, and/or 10^−9 M; for example, in many instances, assessed concentrations included about 10^−5, 10^−6, 10^−7 and 10^−8 M. In some embodiments, assessed concentrations were about 10^−4, 10^−4.5, 10^−5, 10^−5.5, 10^−6, 10^−7, 10^−8, and 10^−9 M. In some embodiments, assessed concentrations were about 10^−4, 10^−5, 10^−6, 10^−7, 10^−8, and 10^−9 M. In some embodiments, assessed concentrations were about 10^−4, 10^−4.5, 10^−5, 10^−5.5, 10^−6, and 10^−7 M. In some embodiments, assessed concentrations were about 2000000, 1000000, 500000, 250000, 125000, 62500, 31250, 15625, 7813, 3906 nM. […] In some embodiments, assessed concentrations were about 30000, 10000, 3333, 1111, 370, 123, 41, 14, 4.6, 1.5 nM.

[3] = FXR activation, HEK293T FXRE-NanoLuc reporter, 24 hr

SMILES: C[C@H](CCNC(=O)NS(=O)(=O)c1ccc(C(C)(C)CF)cc1)[C@H]1CC[C@H]2[C@@H]3CC[C@@H]4CCCC[C@]4(C)[C@H]3CC[C@]12C [21-1]
- Efficacy (maximum measured induction of NanoLuc, normalized to CDCA set as 100%) [1]: B (key: A: efficacy >400%; B: 300%<efficacy <=400%; C: 100%<efficacy <=300%; D: efficacy <=100%)
- EC50 [1, 3]: 1000 to 10000 nM

SMILES: CC[C@H]1[C@@H](O)[C@@H]2[C@H](CC[C@]3(C)[C@@H]([C@H](C)CCc4nnc(C(C)C)s4)CC[C@@H]23)[C@@]2(C)CCCC[C@@H]12 [15-1]
- Efficacy (maximum measured induction of NanoLuc, normalized to CDCA set as 100%) [1, 3]: B (300%<efficacy <=400%)
- EC50 [1, 3]: 1000 to 10000 nM

SMILES: C[C@H](CNC(=O)NS(=O)(=O)c1ccc(C(C)(C)CF)cc1)[C@H]1CC[C@H]2[C@@H]3CC[C@@H]4CCCC[C@]4(C)[C@H]3CC[C@]12C [23-1]
- Efficacy (maximum measured induction of NanoLuc, normalized to CDCA set as 100%) [1, 3]: B (300%<efficacy <=400%)
- EC50 [1, 3]: 1000 to 10000 nM

- Efficacy (maximum measured induction of NanoLuc, normalized to CDCA set as 100%) [1, 3]: A (efficacy >400%)
- EC50 [1, 3]: < 1000 nM
SMILES: C[C@H](CCC(=O)O)[C@H]1CC[C@H]2[C@@H]3CC[C@@H]4C[C@H](O)CC[C@]4(C)[C@H]3C[C@@H](O)[C@]12C [RC-4]

- Activation (%) ([2]; E3-8-1, 3906 nM, n = 1): 3.48%
- Activation (%) ([2]; E3-8-1, 3906 nM, n = 2): 4.41%
- Activation (%) ([2]; E3-8-1, 7813 nM, n = 1): 3.48%
- Activation (%) ([2]; E3-8-1, 7813 nM, n = 2): 4.10%
- Activation (%) ([2]; E3-8-1, 15625 nM, n = 1): 6.58%
- Activation (%) ([2]; E3-8-1, 15625 nM, n = 2): 9.06%
- Activation (%) ([2]; E3-8-1, 31250 nM, n = 1): 13.7%
- Activation (%) ([2]; E3-8-1, 31250 nM, n = 2): 25.8%
- Activation (%) ([2]; E3-8-1, 62500 nM, n = 1): 65.7%
- Activation (%) ([2]; E3-8-1, 62500 nM, n = 2): 49.9%
- Activation (%) ([2]; E3-8-1, 125000 nM, n = 1): 100.4%
- Activation (%) ([2]; E3-8-1, 125000 nM, n = 2): 85.8%
- Activation (%) ([2]; E3-8-1, 250000 nM, n = 1): 104.4%
- Activation (%) ([2]; E3-8-1, 250000 nM, n = 2): 100.4%
- Activation (%) ([2]; E3-8-1, 500000 nM, n = 1): 138.8%
- Activation (%) ([2]; E3-8-1, 500000 nM, n = 2): 110.9%
- Activation (%) ([2]; E3-8-1, 1000000 nM, n = 1): 151.8%
- Activation (%) ([2]; E3-8-1, 1000000 nM, n = 2): 149.6%
- Activation (%) ([2]; E3-8-1, 2000000 nM, n = 1): 191.4%
- Activation (%) ([2]; E3-8-1, 2000000 nM, n = 2): 158.9%
- EC50 ([2]; no activation in tested range reported as III, read-out: Activity (EC50 μM)): < 50 µM
- EC50 ([2]; read-out: Activity (EC50 μM), value in parentheses): 37 µM
SMILES: CC[C@H]1[C@@H](O)[C@@H]2[C@H](CC[C@]3(C)[C@@H]([C@H](C)CCC(=O)O)CC[C@@H]23)[C@@]2(C)CC[C@@H](O)C[C@@H]12 [OCA, obeticholic acid, reference compound]

- MRGPRX4 activation, fluorescence change (dF/F0), Average ([2]; Conc. (Log[M]) −4): 1.098
- MRGPRX4 activation, fluorescence change (dF/F0), Average ([2]; Conc. (Log[M]) −4.5): 0.586
- MRGPRX4 activation, fluorescence change (dF/F0), Average ([2]; Conc. (Log[M]) −5): 0.082
- MRGPRX4 activation, fluorescence change (dF/F0), Average ([2]; Conc. (Log[M]) −5.5): −0.017
- MRGPRX4 activation, fluorescence change (dF/F0), Average ([2]; Conc. (Log[M]) −6): −0.057
- MRGPRX4 activation, fluorescence change (dF/F0), Average ([2]; Conc. (Log[M]) −7): −0.044
- MRGPRX4 activation, fluorescence change (dF/F0), Average ([2]; Conc. (Log[M]) −8): −0.049
- MRGPRX4 activation, fluorescence change (dF/F0), Average ([2]; Conc. (Log[M]) −9): −0.070
SMILES: C[C@H](CCC(=O)O)[C@H]1CC[C@H]2[C@@H]3[C@H](O)C[C@@H]4C[C@H](O)CC[C@]4(C)[C@H]3CC[C@]12C [CDCA, chenodeoxycholic acid, reference compound]
